# Measured values: PubChem BioAssay AID248 (DTP/NCI, 2004)
# Several values for one entry are separate records, joined by “and”; a condition that tells them apart may be missing. Identical values can stand only once. Inconclusive results and toxic doses are left out.
# Tested on: L1210 leukemia ip in BDF1 mice, survival T/C
# Test: NCI In Vivo Anticancer Drug Screen. Data for tumor model L1210 Leukemia (intraperitoneal) in B6D2F1 (BDF1) mice
# Conditions: endpoint: mean survival time, higher = longer survival
# How it was run: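 Each compound was tested against a transplantable tumor grown in mice. The endpoint was survival, with treated animals benchmarked against vehicle controls as a simple ratio.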
structure (smiles),measurement,setting,value
C=COCC(C)C (tested in a mixture with another compound),T/C,"dose: 1.56 mg/kg/injection, schedule: Q01DX001 (ip), vehicle: other",94 % of control
same,T/C,"dose: 3.12 mg/kg/injection, schedule: Q01DX001 (ip), vehicle: other",91 % of control
same,T/C,"dose: 3.12 mg/kg/injection, schedule: Q01DX009 (ip), vehicle: other",109 % of control
same,T/C,"dose: 3.12 mg/kg/injection, schedule: Q04DX003 (ip), vehicle: Klucel (hydroxypropylcellulose) (HPC)",97 % of control
same,T/C,"dose: 3.13 mg/kg/injection, schedule: Q04DX003 (ip), vehicle: saline",92 % of control
same,T/C,"dose: 4.7 mg/kg/injection, schedule: Q01DX009 (ip), vehicle: saline",104 % of control
same,T/C,"dose: 6.25 mg/kg/injection, schedule: Q01DX001 (ip), vehicle: other",96 % of control
same,T/C,"dose: 6.25 mg/kg/injection, schedule: Q01DX009 (ip), vehicle: Klucel (hydroxypropylcellulose) (HPC)",107 % of control
same,T/C,"dose: 6.25 mg/kg/injection, schedule: Q01DX009 (ip), vehicle: other",98 % of control
same,T/C,"dose: 6.25 mg/kg/injection, schedule: Q04DX003 (ip), vehicle: Klucel (hydroxypropylcellulose) (HPC)",114 % of control
same,T/C,"dose: 6.25 mg/kg/injection, schedule: Q04DX003 (ip), vehicle: saline",94 % of control
same,T/C,"dose: 7.09 mg/kg/injection, schedule: Q01DX009 (ip), vehicle: Klucel (hydroxypropylcellulose) (HPC)",107 % of control
same,T/C,"dose: 9.4 mg/kg/injection, schedule: Q01DX009 (ip), vehicle: saline",102 % of control
same,T/C,"dose: 10.6 mg/kg/injection, schedule: Q01DX009 (ip), vehicle: Klucel (hydroxypropylcellulose) (HPC)",107 % of control
same,T/C,"dose: 12.5 mg/kg/injection, schedule: Q01DX009 (ip), vehicle: Klucel (hydroxypropylcellulose) (HPC)",93 % of control
same,T/C,"dose: 12.5 mg/kg/injection, schedule: Q04DX003 (ip), vehicle: Klucel (hydroxypropylcellulose) (HPC)",111 % of control
same,T/C,"dose: 15.0 mg/kg/injection, schedule: Q01DX001 (ip), vehicle: saline",109 % of control
same,T/C,"dose: 25.0 mg/kg/injection, schedule: Q04DX003 (ip), vehicle: Klucel (hydroxypropylcellulose) (HPC)",88 % of control
same,T/C,"dose: 30.0 mg/kg/injection, schedule: Q01DX001 (ip), vehicle: saline",112 % of control
same,T/C,"dose: 60.0 mg/kg/injection, schedule: Q01DX001 (ip), vehicle: saline",95 % of control
same,T/C,"dose: 75.0 mg/kg/injection, schedule: Q01DX001 (ip), vehicle: carboxymethylcellulose (CMC)",95 % of control
same,T/C,"dose: 75.0 mg/kg/injection, schedule: Q04DX003 (ip), vehicle: saline",108 % of control and 110 % of control
same,T/C,"dose: 100.0 mg/kg/injection, schedule: Q01DX001 (ip), vehicle: other",106 % of control and 94 % of control
same,T/C,"dose: 150.0 mg/kg/injection, schedule: Q01DX001 (ip), vehicle: carboxymethylcellulose (CMC)",114 % of control
same,T/C,"dose: 150.0 mg/kg/injection, schedule: Q04DX003 (ip), vehicle: saline",98 % of control
same,T/C,"dose: 300.0 mg/kg/injection, schedule: Q01DX001 (ip), vehicle: carboxymethylcellulose (CMC)",100 % of control
same,T/C,"dose: 400.0 mg/kg/injection, schedule: Q01DX001 (ip), vehicle: Klucel (hydroxypropylcellulose) (HPC)",92 % of control
CCCCCCCCCCN(CCCCCCCCCC)S(=O)(=O)c1ccc(OC)c([N+](=O)[O-])c1,T/C,"dose: 75.0 mg/kg/injection, schedule: Q01DX001 (ip), vehicle: other",100 % of control
same,T/C,"dose: 150.0 mg/kg/injection, schedule: Q01DX001 (ip), vehicle: other",93 % of control
same,T/C,"dose: 300.0 mg/kg/injection, schedule: Q01DX001 (ip), vehicle: other",90 % of control
Nc1nc(N)c2c(n1)CCCC2,T/C,"dose: 12.5 mg/kg/injection, schedule: Q04DX003 (ip), vehicle: saline with Tween-80",95 % of control
same,T/C,"dose: 25.0 mg/kg/injection, schedule: Q04DX003 (ip), vehicle: saline with Tween-80",93 % of control
same,T/C,"dose: 50.0 mg/kg/injection, schedule: Q04DX003 (ip), vehicle: saline with Tween-80",91 % of control
CN(CCc1ccccc1)/N=N/c1nc[nH]c1C(N)=O,T/C,"dose: 100.0 mg/kg/injection, schedule: Q01DX001 (ip), vehicle: saline with Tween-80",96 % of control
same,T/C,"dose: 100.0 mg/kg/injection, schedule: Q01DX009 (ip), vehicle: Klucel (hydroxypropylcellulose) (HPC)",102 % of control
same,T/C,"dose: 100.0 mg/kg/injection, schedule: Q04DX003 (ip), vehicle: saline with Tween-80",110 % of control
same,T/C,"dose: 118.0 mg/kg/injection, schedule: Q04DX003 (ip), vehicle: saline with Tween-80",101 % of control
same,T/C,"dose: 150.0 mg/kg/injection, schedule: Q01DX009 (ip), vehicle: saline with Tween-80",155 % of control
same,T/C,"dose: 177.0 mg/kg/injection, schedule: Q04DX003 (ip), vehicle: saline with Tween-80",115 % of control
same,T/C,"dose: 200.0 mg/kg/injection, schedule: Q01DX001 (ip), vehicle: saline with Tween-80",104 % of control
same,T/C,"dose: 200.0 mg/kg/injection, schedule: Q01DX009 (ip), vehicle: Klucel (hydroxypropylcellulose) (HPC)",103 % of control
same,T/C,"dose: 200.0 mg/kg/injection, schedule: Q04DX003 (ip), vehicle: saline with Tween-80",112 % of control
same,T/C,"dose: 300.0 mg/kg/injection, schedule: Q01DX009 (ip), vehicle: saline with Tween-80",163 % of control
same,T/C,"dose: 400.0 mg/kg/injection, schedule: Q01DX001 (ip), vehicle: saline with Tween-80",118 % of control
same,T/C,"dose: 400.0 mg/kg/injection, schedule: Q01DX009 (ip), vehicle: Klucel (hydroxypropylcellulose) (HPC)",113 % of control
same,T/C,"dose: 400.0 mg/kg/injection, schedule: Q04DX003 (ip), vehicle: saline with Tween-80",150 % of control
same,T/C,"dose: 600.0 mg/kg/injection, schedule: Q04DX003 (ip), vehicle: saline with Tween-80",179 % of control
